From patent US9765115B2, “Inhibitors of metastasis, methods of generating such inhibitors and their therapeutic applications” (Board of Supervisors of Louisiana State University acting …, priority 2011, dated 2017)
Entries after “also recorded” stand apart in the source; their conditions may differ.

Key:
[1] = test system: LNCaP, PC-3M and DU-145 cell lines; experiment: Paracellular permeability (PCP), TRITC-dextran diffusion; type: cell-based; details: 50 nM CT
Method: For PCP measurements, cells were grown to confluence on Transwell filters. Tetra methyl rhodamine-dextran (1 mg/ml, ˜4 kDa, Sigma) was added to the upper chamber. Fluorescence of the lower chamber medium was measured in Modulus Microplate Reader (Turner Biosystems) at various time intervals.
Whether CT produces similar effects in LNCaP, PC-3M and DU-145 cell lines, which endogenously express CTR, was examined as shown in FIG. 1A. FIGS. 9A-9B depict the effect of CT on tight junction (TJ) disruption as measured using TER and PCP in the three prostate cancer cell lines—LNCaP, PC-3M, and DU-145. Cells were serum-starved for 4 hours, then treated with and without 50 nM CT, before measuring TER as described above. In FIG. 9B, cells were treated with and without 50 nM CT, and PCP determined by diffusion of ˜4 kDa TRITC-conjugated dextran from the upper to the lower chamber in one hour. The results are expressed as μg/ml/hour of TRITC-Dextran diffused ±SEM (n=6; *p<0.05 (−CT v +CT, One way ANOVA and Newman-Keul's test)). FIG. 9C depicts effects of CT on cell invasion in the same three cell lines—PC-3M, LNCaP, and DU145. Cells were added to upper insert of invasion chambers with or without 50 nM CT, and cells that passed through the Matrigel™ barrier were counted after 48 h. The results are expressed as mean number of invaded cells per 400× field ±SEM (n=6; *p<0.05).

[2] = test system: PC-3CTRwt cells; experiment: Transepithelial electric resistance (TER); type: cell-based
Method: (§1) Cells were plated on Transwell filters (0.4 μm pore size) and grown to confluency in complete medium (RPMI1640 containing 10% fetal bovine serum, 20 mM HEPES and antibiotics). TER of the cultures (in duplicate wells) was measured at several time intervals with EVOM volt-ohm meter as previously described (Shah et al, 2009). The readings were corrected for blank (TER values from the filter in bathing medium). The integrity and cell density of monolayers were carefully monitored.
(§2) To examine the effect of calcitonin (CT) on tight junctions (TJs), the transepithelial electric resistance (TER) of polarized PC-3 cells expressing either the vector (PC-3V), CTRwt or CTRΔESS was monitored for 8 hours after CT stimulation (FIG. 2A). Polarized PC-3V, PC-3 CTRwt and PC-3 CTR-ΔESS cells were serum-starved for 4 hours, then treated with or without 50 nM CT. TER was measured with EVOM volt-ohm meter, and results expressed as Ωcm^2±SEM (n=6). […] Since PC-3 cells secrete CT, the expression of CTRwt may have activated CT-CTR axis causing almost 40% reduction of TER in PC-3CTRwt cells.
The effect of CT on TJ functionality was tested by monitoring TER of PC-3CTRwt monolayers. […] Polarized PC-3-CTRwt cells were serum-starved for 4 hours, then treated with or without 50 nM CT. TER was measured with EVOM volt-ohm meter. The results are expressed as TER ±SEM (Ωcm^2±SEM; n=6). […] PCP was determined by diffusion of ˜4 kDa TRITC-conjugated dextran from the upper to the lower chamber in one hour. The results are expressed as μg/ml/hour of TRITC-Dextran diffused ±SEM (n=6; *p<0.05 (−CT v +CT, One way ANOVA and Newman-Keul's test)).
To understand the significance of CT-induced, PKA-dependent disassembly of TJs in PC cell adhesion and invasion, the action of CT was examined on TER, PCP, cell adhesion and invasion in PC-3CTRwt cells in the presence/absence of mPKI. […] Similarly, mPKI abrogated the actions of CT on PCP and invasion (FIGS. 20B and 20C respectively). Next, the adhesion of PC-3CTRwt cells was examined on culture dishes.

[3] = test system: UMUC3, RT4, A2780, OVCAR8 and A549 cancer cell lines; experiment: Transepithelial electric resistance (TER) in other cancer cell lines; type: cell-based, human
Method: as §1
Next, whether CTR destabilizes tight junctions and increases invasion in these cancers was tested by examining the effect of CT on transepithelial electric resistance (TER), paracellular permeability (PCP) and invasion in cancer cell lines derived from bladder cancer (UMUC3 and RT4), ovarian cancer (A2780 and OVCAR8), and lung cancer (A549). Prostate cancer cell line PC-3CTR was used a reference line. […] This was further confirmed by the actions of CT on PCP (FIG. 26A) and cell invasion (FIG. 26B). […] The role of CT-CTR axis is to destabilize junction complexes and increase invasion in cancers as diverse as prostate, bladder, lung and ovarian cancers.

[4] = test system: PC-3V cells; experiment: Transepithelial electric resistance (TER); type: cell-based; details: 50 nM CT
Method: as §1, §2

[5] = test system: PC-3CTRΔESS cells; experiment: Transepithelial electric resistance (TER); type: cell-based
Method: as §1, §2

Substance: calcitonin [CT]
- PCP [1]: increased PCP
- TER ([2]; 50 nM CT): decreased TER even further; also recorded: relatively rapid decline in TER; also recorded: steady, remarkable decline
- time at which decline in TER became apparent ([2]; 50 nM CT): ≤ 10 min
- time to remarkable drop in TER ([2]; 50 nM CT): ≤ 30 min
- TER at multiple CT concentrations ([2]; CT 10 and 100 nM): significant decrease
- response to CT ([3]; aggressive cell lines): responded extremely well
- response to CT ([3]; well-differentiated lines RT4 and OVCAR8): responded poorly
- TER ([3]; with CT, all these cell lines): decreased TER
- TER [4]: did not alter it
- TER ([5]; 50 nM CT): did not affect TER
- TER at multiple CT concentrations ([5]; all CT concentrations): did not show any changes
